Assay [1] addresses T1, recombinant human FLAP protein (Homo sapiens, UniProt P20292).
T1 construct: made in house; host or cells: Sf9 insect cells (100,000 x g membrane fraction)
T1 sequence (P20292 1-161): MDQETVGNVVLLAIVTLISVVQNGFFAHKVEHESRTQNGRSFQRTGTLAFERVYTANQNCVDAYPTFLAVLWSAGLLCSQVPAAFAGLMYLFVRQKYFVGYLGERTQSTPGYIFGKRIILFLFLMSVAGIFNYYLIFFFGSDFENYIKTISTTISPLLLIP
In words: FLAP binding assay (Scintillation Proximity Assay, displacement of [125I]L-691,831). The following applies: recombinant human FLAP membranes, [125I]L-691,831 probe; read-out: FLAP SPA IC50. The method in brief: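 WGA scintillation proximity beads were stirred 1 h with 5 μg of FLAP-containing membrane protein. The membranes came from baculovirus Sf9 cells, Dounce-lysed and spun to a 100,000×g pellet in buffer at pH 7.5.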

Assay [2] relates to synthesis of LTB4 in human whole blood. Nature of the assay: human whole blood LTB4 production inhibition assay. The format is cell-based. The following applies: heparinized human whole blood, calcimycin 20 μM, read-out: hWB LTB4 IC50. The method in brief:
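LTB4 levels in plasma were measured by antibody-based HTRF after heparinized human whole blood, pretreated with compound (15 min, 37° C), was challenged with 20 μM calcimycin for 30 min at 37° C.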

Read-outs that look alike come from different tables or passages of the source.

As to `Cn1cc(-c2nc(C3(c4ccc(-c5ccc(N)c(C#N)c5)cc4)CCC3)no2)cn1` [Example 260], the half-maximal inhibitory concentration (IC50) is 76 nM in assay [1] and 2000 nM in assay [2] (Homo sapiens).

For `Cn1cc(-c2nc(C3(c4ccc(-c5cnc(N)c(C#N)c5)cc4)CCC3)no2)cn1` [Example 261, 2-Amino-5-(4-{1-[5-(1-methyl-1H-pyrazol-4-yl)-[1,2,4]oxadiazol-3-yl]-cyclobutyl}-phenyl)-nicotinonitrile], the IC50 in assay [1] was 9.3 nM; in assay [2] (Homo sapiens) it was 240 nM.

For the compound `Cn1cc(-c2nc(C3(c4ccc(-c5cnc6[nH]ccc6n5)cc4)CCC3)no2)cn1` [Example 262, 2-(4-{1-[5-(1-Methyl-1H-pyrazol-4-yl)-[1,2,4]oxadiazol-3-yl]-cyclobutyl}-phenyl)-5H-pyrrolo[2,3-b]pyrazine], the IC50 is 2.4 nM in assay [1] and 27 nM in assay [2] (Homo sapiens).

As for `Nc1ncc(-c2ccc(C3(c4noc(-c5cn(C6COC6)cn5)n4)CCC3)cc2)cn1` [Example 263, 5-(4-{1-[5-(1-Oxetan-3-yl-1H-imidazol-4-yl)-[1,2,4]oxadiazol-3-yl]-cyclobutyl}-phenyl)-pyrimidin-2-ylamine], the values for the IC50 in assay [1] and in assay [2] (Homo sapiens) were 16 nM and 190 nM, respectively.

As for `Nc1ncc(-c2ccc(C3(c4noc(-c5cncn5C5COC5)n4)CCC3)cc2)cn1` [Example 264, 5-(4-{1-[5-(3-Oxetan-3-yl-3H-imidazol-4-yl)-[1,2,4]oxadiazol-3-yl]-cyclobutyl}-phenyl)-pyrimidin-2-ylamine], the IC50 was found to be 8.3 nM in assay [1] and 280 nM in assay [2] (Homo sapiens).

Consider `Cn1cnc(-c2nc(C3(c4ccc(-c5cnc(N)cn5)cc4)CCC3)no2)c1` [Example 265], for which the results for the IC50 in assay [1] and in assay [2] (Homo sapiens) were 6.2 nM and 55 nM, respectively.

Take `Nc1ncc(-c2ccc(C3(c4noc(-c5csc(N6CCNCC6)n5)n4)CCC3)cc2)cn1` [Example 266, 5-(4-{1-[5-(2-Piperazin-1-yl-thiazol-4-yl)-[1,2,4]oxadiazol-3-yl]-cyclobutyl}-phenyl)-pyrimidin-2-ylamine]: the IC50 in assay [1] is 6.5 nM; in assay [2] (Homo sapiens) it was 160 nM.

As for `CN(C)C(=O)Cn1cc(-c2nc(C3(c4ccc(-c5cnc(N)nc5)cc4)CC3)no2)cn1` [Example 268, 2-[4-(3-{1-[4-(2-Amino-pyrimidin-5-yl)-phenyl]-cyclopropyl}-[1,2,4]oxadiazol-5-yl)-pyrazol-1-yl]-N,N-dimethyl-acetamide], the IC50 was 670 nM in assay [1] and above 5000 nM in assay [2] (Homo sapiens).

In the case of `Nc1ncc(-c2ccc(C3(c4noc(-c5csc(C6CCNCC6)n5)n4)CCC3)cc2)cn1` [Example 269], the IC50 in assay [1] amounted to 5.6 nM; in assay [2], 320 nM.

Take `CN(C)CCN(C)c1cnc(-c2nc(C3(c4ccc(-c5cnc(N)nc5)cc4)CCC3)no2)cn1` [Example 271, N-[5-(3-{1-[4-(2-Amino-pyrimidin-5-yl)-phenyl]-cyclobutyl}-[1,2,4]oxadiazol-5-yl)-pyrazin-2-yl]-N,N′,N′-trimethyl-ethane-1,2-diamine]: the IC50 was 5.3 nM in assay [1] and 44 nM in assay [2] (Homo sapiens).

For the compound `Cn1cc(-c2nc(C3(c4ccc(-c5cnc6c(c5)CCN6)cc4)CCC3)no2)cn1` [Example 272, 5-(4-{1-[5-(1-Methyl-1H-pyrazol-4-yl)-[1,2,4]oxadiazol-3-yl]-cyclobutyl}-phenyl)-2,3-dihydro-1H-pyrrolo[2,3-b]pyridine], the IC50 worked out at 3.8 nM in assay [1] and 79 nM in assay [2] (Homo sapiens).

For the compound `Cn1cc(-c2nc(C3(c4ccc(-c5cnc6[nH]ccc6c5)cc4)CCC3)no2)cn1` [Example 273, 5-(4-{1-[5-(1-Methyl-1H-pyrazol-4-yl)-[1,2,4]oxadiazol-3-yl]-cyclobutyl}-phenyl)-1H-pyrrolo[2,3-b]pyridine], the IC50 in assay [1] came to 3.9 nM; in assay [2] (Homo sapiens) it was 79 nM.

Consider `Cn1cc(-c2nc(C3(c4ccc(-c5cnc(N)c(CO)c5)cc4)CCC3)no2)cn1` [Example 274, [2-Amino-5-(4-{1-[5-(1-methyl-1H-pyrazol-4-yl)-[1,2,4]oxadiazol-3-yl]-cyclobutyl}-phenyl)-pyridin-3-yl]-methanol], for which the figures for the IC50 in assay [1] and in assay [2] (Homo sapiens) were 8.8 nM and 220 nM, respectively.

Consider `CN(C)C(=O)Cn1cc(-c2nc(C3(c4ccc(-c5cnc6[nH]ccc6n5)cc4)CCC3)no2)cn1` [Example 275, N,N-Dimethyl-2-[4-(3-{1-[4-(5H-pyrrolo[2,3-b]pyrazin-2-yl)-phenyl]-cyclobutyl}-[1,2,4]oxadiazol-5-yl)-pyrazol-1-yl]-acetamide], for which the IC50 in assay [1] is 2.8 nM; in assay [2] (Homo sapiens), 140 nM.

Take `CNc1ncc(-c2ccc(C3(c4noc(-c5cnn(CC(=O)N(C)C)c5)n4)CCC3)cc2)cn1` [Example 276, N,N-Dimethyl-2-[4-(3-{1-[4-(2-methylamino-pyrimidin-5-yl)-phenyl]-cyclobutyl}-[1,2,4]oxadiazol-5-yl)-pyrazol-1-yl]-acetamide]: the IC50 in assay [1] was 7 nM; in assay [2] (Homo sapiens) it was 110 nM.

In the case of `Nc1ncc(-c2ccc(C3(c4noc(Cn5ccnc5)n4)CCC3)cc2)cn1` [Example 277, 5-{4-[1-(5-Imidazol-1-ylmethyl-[1,2,4]oxadiazol-3-yl)-cyclobutyl]-phenyl}-pyrimidin-2-ylamine], the IC50 worked out at 260 nM in assay [1] and 2800 nM in assay [2] (Homo sapiens).

Regarding `CC(C)(O)Cc1nc(C2(c3ccc(-c4cnc(N)nc4)cc3)CCC2)no1` [Example 278, 1-(3-{1-[4-(2-Amino-pyrimidin-5-yl)-phenyl]-cyclobutyl}-[1,2,4]oxadiazol-5-yl)-2-methyl-propan-2-ol], the IC50 was determined as 78 nM in assay [1] and 1700 nM in assay [2] (Homo sapiens).

As to `Cc1n[nH]c(C)c1Cc1nc(C2(c3ccc(-c4cnc(N)nc4)cc3)CCC2)no1` [Example 279], the concentration for half-maximal inhibition (IC50) in assay [1] is 29 nM; in assay [2] (Homo sapiens), above 5000 nM.

Consider `CN1CCCCC1c1nc(C2(c3ccc(-c4cnc(N)nc4)cc3)CCC2)no1` (stereo not shown) [Example 280, 5-(4-{1-[5-(1-Methyl-piperidin-2-yl)-[1,2,4]oxadiazol-3-yl]-cyclobutyl}-phenyl)-pyrimidin-2-ylamine], for which the IC50 in assay [1] was 17 nM; in assay [2] (Homo sapiens), 1400 nM.

With `Nc1ncc(-c2ccc(C3(c4noc([C@H]5CCCCN5)n4)CCC3)cc2)cn1` [Example 282, 5-{4-[1-((R)-5-Piperidin-2-yl-[1,2,4]oxadiazol-3-yl)-cyclobutyl]-phenyl}-pyrimidin-2-ylamine], the IC50 in assay [1] stood at 26 nM; in assay [2] (Homo sapiens), 1100 nM.

On to `Nc1ncc(-c2ccc(C3(c4noc(C5CCCCN5)n4)CCC3)cc2)cn1` (stereo not shown) [Example 283, 5-{4-[1-(5-Piperidin-2-yl-[1,2,4]oxadiazol-3-yl)-cyclobutyl]-phenyl}-pyrimidin-2-ylamine], for which the IC50 in assay [1] stood at 60 nM; in assay [2] (Homo sapiens) it was 1400 nM.

On to `Nc1ncc(-c2ccc(C3(c4noc(N5CCC(O)CC5)n4)CCC3)cc2)cn1` [Example 284, 1-(3-{1-[4-(2-Amino-pyrimidin-5-yl)-phenyl]-cyclobutyl}-[1,2,4]oxadiazol-5-yl)-piperidin-4-ol], for which the IC50 in assay [1] came to 18 nM; in assay [2] (Homo sapiens), 120 nM.

As to `Nc1ncc(-c2ccc(C3(c4noc(N5CCCC(CO)C5)n4)CCC3)cc2)cn1` (stereo not shown) [Example 286, [1-(3-{1-[4-(2-Amino-pyrimidin-5-yl)-phenyl]-cyclobutyl}-[1,2,4]oxadiazol-5-yl)-piperidin-3-yl]-methanol], the IC50 amounted to 14 nM in assay [1] and 200 nM in assay [2] (Homo sapiens).

On to `Nc1ncc(-c2ccc(C3(c4noc(N5CC[C@H](O)C5)n4)CCC3)cc2)cn1` [Example 287, (S)-1-(3-{1-[4-(2-Amino-pyrimidin-5-yl)-phenyl]-cyclobutyl}-[1,2,4]oxadiazol-5-yl)-pyrrolidin-3-ol], for which the IC50 turned out to be 36 nM in assay [1] and 200 nM in assay [2] (Homo sapiens).

With `Nc1ncc(-c2ccc(C3(c4noc(N5CCC[C@H]5CO)n4)CCC3)cc2)cn1` [Example 288, [(S)-1-(3-{1-[4-(2-Amino-pyrimidin-5-yl)-phenyl]-cyclobutyl}-[1,2,4]oxadiazol-5-yl)-pyrrolidin-2-yl]-methanol], the figures for the IC50 in assay [1] and in assay [2] (Homo sapiens) were 26 nM and 310 nM, respectively.

Take `Nc1ncc(-c2ccc(C3(c4noc(N5CCC[C@@H]5CO)n4)CCC3)cc2)cn1` [Example 289, [(R)-1-(3-{1-[4-(2-Amino-pyrimidin-5-yl)-phenyl]-cyclobutyl}-[1,2,4]oxadiazol-5-yl)-pyrrolidin-2-yl]-methanol]: the IC50 in assay [1] worked out at 31 nM; in assay [2] (Homo sapiens) it was 500 nM.

`Nc1ncc(-c2ccc(C3(c4noc(N5CC[C@@H](O)C5)n4)CCC3)cc2)cn1` [Example 290, (R)-1-(3-{1-[4-(2-Amino-pyrimidin-5-yl)-phenyl]-cyclobutyl}-[1,2,4]oxadiazol-5-yl)-pyrrolidin-3-ol]: the IC50 in assay [1] amounted to 35 nM; in assay [2] (Homo sapiens), 230 nM.

On to `N#CC1CCN(c2nc(C3(c4ccc(-c5cnc(N)nc5)cc4)CCC3)no2)CC1` [Example 291, 1-(3-{1-[4-(2-Amino-pyrimidin-5-yl)-phenyl]-cyclobutyl}-[1,2,4]oxadiazol-5-yl)-piperidine-4-carbonitrile], for which the IC50 in assay [1] turned out to be 19 nM; in assay [2] (Homo sapiens), 210 nM.

As for `CN(CC1CCOCC1)c1nc(C2(c3ccc(-c4cnc(N)nc4)cc3)CCC2)no1` [Example 292, 5-[4-(1-{5-[Methyl-(tetrahydro-pyran-4-ylmethyl)-amino]-[1,2,4]oxadiazol-3-yl}-cyclobutyl)-phenyl]-pyrimidin-2-ylamine], the IC50 in assay [1] was 22 nM; in assay [2] (Homo sapiens), 330 nM.

These data come from patent publication US8580829B2 (Boehringer Ingelheim International GmbH, priority 2010, dated 2013).
